Data as given in patent US20020155381A1, “Optical data carrier comprising a light-absorbent compound having a plurality of chromophoric centres in the information layer” (priority 2001, published 2002).
Values belong to the compound of their own block, whether it stands above or below them.

Columns and labels:
Format in all cases: physicochemical
[1] = Solubility in coating solvent
[2] = Vacuum treatment of the spin-coated film (simulated sputtering conditions), layer thickness afterwards; conditions: vacuum ~10^-6 mbar, 1 hour, room temperature
Experimental: This film was subjected to a vacuum (pressure ˜10^−6 mbar) for 1 hour at room temperature to simulate the conditions when applying metallic or dielectric layers by sputtering during the production of optical data carriers.
(§1) Determination of the complex index of refraction and the thickness of the layer of the organic substances by means of transmission and reflection spectra:
(§2) The transmission and reflection spectra of the layer systems film/fused silica or SiN/film/fused silica or SiN/fused silica were determined with perpendicular incidence of a parallel beam of light in a wavelength range of from 200 nm to 1 700 nm. […] The reflected light was detected at an angle of 172° relative to the direction of incidence. Two different thicknesses of the organic film were in each case produced by spin coating. The thickness of the layer was adjusted by means of the solution concentration. The thicknesses were in the range from 50 nm to 500 nm. To evaluate the transmission and reflection spectra, the known Fresnel formulae were employed and the interferences caused by multiple reflection in the layer system were taken into account. A simultaneous least squares fit of the measured transmission and reflection spectra to the calculated spectra of the two layer systems of differing thickness enabled the layer thicknesses and the complex index of refraction of the organic substance to be determined at each wavelength. For this purpose, the index of refraction of the fused silica support has to be known. The index of refraction curve of the fused silica substrate in this spectral range was determined independently on an uncoated substrate.

[3] = Spin coating on fused silica support: film quality and film thickness from transmission and reflection spectra; conditions: for kind of film obtained by spin coating: 1-2 parts of solid per 100 in TFP or THF; for film thickness: spin coated from 1 part of solid to 99 parts of TFP, before vacuum
Experimental: A 1/1 mixture (by mass) of substances of the following formulae was dissolved in tetrafluoropropanol (TFP) in a mass ratio of 2 parts of solid to 98 parts of TFP. […] Evaluation of the transmission and reflection spectra indicated a film thickness of 165 nm. [drawing 62]
as §1, §2

[4] = SiN vapour deposition on the organic film, apparent thickness of the organic film
Experimental: A layer of SiN was subsequently applied by vapour deposition on top of the layer which had been pretreated in the above-described manner. Vapour deposition was carried out by electric heating of Si3N4 in a molybdenum boat under reduced pressure. The pressure during the vapour deposition process was ˜10^−4 mbar, and the deposition rate was ˜4-5 Angström per second. To determine the complex index of refraction of the deposited SiN layer, control experiments were carried out on plain fused silica plates. The thickness of the SiN layer was determined by means of a profiler (Tencor Alpha Step 500 Surface Profiler). In turn, evaluation of the transmission and reflection spectra of the layer system taking into account the complex index of refraction and the thickness of the SiN layer enabled the apparent thickness of the organic film to be determined. It was 94 nm. […]
The transmission and reflection spectra of the layer systems film/fused silica or SiN/film/fused silica or SiN/fused silica were determined with perpendicular incidence of a parallel beam of light in a wavelength range of from 200 nm to 1 700 nm. […] The reflected light was detected at an angle of 172° relative to the direction of incidence. […] The index of refraction curve of the fused silica substrate in this spectral range was determined independently on an uncoated substrate.

- solubility ([1]; in TFP (tetrafluoropropanol)): 1%
SMILES: CN(CCOC(=O)CCC(=O)OCCN(C)c1ccc(C(C#N)=C(C#N)C#N)cc1)c1ccc(C(C#N)=C(C#N)C#N)cc1 [Example 5]

- solubility ([1]; in diacetone alcohol): 2%
SMILES: N#C/C(=C\c1cccn1CCCn1cccc1/C=C(\C#N)c1ccccc1)c1ccccc1 [Example 9]

- solubility ([1]; in TFP (tetrafluoropropanol)): 2%
SMILES: CC1(C)CC(=O)C(=Cc2ccc(N3CCN(c4ccc(C=C5C(=O)CC(C)(C)CC5=O)o4)CC3)o2)C(=O)C1 [Example 10]

- solubility ([1]; in TFP (tetrafluoropropanol)): 2%
SMILES: CCN(CC)c1ccc(/C=C/c2cc[n+](Cc3ccccc3C[n+]3ccc(/C=C/c4ccc(N(CC)CC)cc4)cc3)cc2)cc1 [Example 12]

- solubility ([1]; in TFP (tetrafluoropropanol)): 2%
SMILES: CN(CCC#N)c1ccc(/C=C/C2=[N+](CCCC[N+]3=C(/C=C/c4ccc(N(C)CCC#N)cc4)C(C)(C)c4ccccc43)c3ccccc3C2(C)C)cc1 [Example 13]

- retention of the substance after vacuum treatment [2]: fully retained
- total thickness d of the layer after vacuum treatment [2]: 85 nm
- kind of film obtained by spin coating [3]: transparent film
- film thickness [3]: 85 nm
SMILES: COc1cc2c(cc1OC)C(C)(C)C/C2=C(/C#N)C(=O)OCCOC(=O)/C(C#N)=C1\CC(C)(C)c2cc(OC)c(OC)cc21 [Example II]

- kind of film obtained by spin coating [3]: crystalline film
SMILES: CCCOC(=O)/C(C#N)=C/c1ccc(C)o1 [Example IV, reference compound]

- retention of the substance after vacuum treatment [2]: virtually fully retained
- total thickness d of the layer after vacuum treatment [2]: 143 nm
- kind of film obtained by spin coating [3]: transparent film
- film thickness [3]: 153 nm
- change of the layer by the SiN vapour deposition process ([4]; SiN deposited at ~10^-4 mbar on vacuum-pretreated layer): the layer has not been changed
- apparent thickness of the organic film after SiN vapour deposition ([4]; SiN deposited at ~10^-4 mbar, ~4-5 Angström per second, on vacuum-pretreated layer): 160 nm
SMILES: Cc1ccc(/C=C(\C#N)C(=O)OCC(C)(COC(=O)/C(C#N)=C/c2ccc(C)o2)COC(=O)/C(C#N)=C/c2ccc(C)o2)o1 [Example V]
